From patent US8158352B2, “Screening of a novel hepatic syndrome and its uses” (Assistance Publique-Hopitaux de Paris, priority 2000, dated 2012)

System: hepatic bile of patients with intrahepatic cholestasis, cholesterol microcholelithiasis and MDR3 gene abnormality
Assay: Bile lipid composition of the hepatic bile from patients receiving treatment with UDCA
Format: in vivo, human
Conditions: for Cholesterol saturation index (CSI): calculated from Carey's critical tables
Experimental: The concentration of total bile salts is measured by an enzymatic technique using 3α-hydroxysteroid dehydrogenase (Enzabile, Nycomed, Oslo, Norway). The content of total phospholipids is determined by an enzymatic method in the presence of phospholipase D and choline oxidase. The cholesterol is determined by an enzymatic reaction with cholesterol oxidase or cholesterol esterase. The cholesterol saturation indices for the hepatic bile samples are calculated from Carey's critical tables (J. Lipid Res., 1978, 19, 945-955).
The bile lipid composition of the hepatic bile was studied using samples obtained by radioscopy of the duodenum (patients 2 and 3) or using a T tube (patients 5 and 6). The results obtained in the untreated patients or the patients receiving treatment with UDCA are given respectively in Tables V and VI below.

[1] = Case 5, receiving treatment with UDCA
[2] = Case 6, receiving treatment with UDCA

Compound: C[C@H](CCC(=O)O)[C@H]1CC[C@H]2[C@@H]3[C@@H](O)C[C@@H]4C[C@H](O)CC[C@]4(C)[C@H]3CC[C@]12C [UDCA, ursodeoxycholic acid]
- Bile lipid classes: Bile salts (BS) [1]: 47.5 mol %
- Bile lipid classes: Cholesterol (CH) [1]: 16.8 mol %
- Bile lipid classes: Phospholipids (PL) [1]: 35.7 mol %
- Concentration of bile PL [1]: 7.77
- Lipid ratios: CH/BS [1]: 0.35
- Lipid ratios: CH/PL [1]: 0.47
- Lipid ratios: PL/BS [1]: 0.75
- Cholesterol saturation index (CSI) [1]: 4.0
- Bile lipid classes: Bile salts (BS) [2]: 72 mol %
- Bile lipid classes: Cholesterol (CH) [2]: 8.2 mol %
- Bile lipid classes: Phospholipids (PL) [2]: 19.7 mol %
- Concentration of bile PL [2]: 6.03
- Lipid ratios: CH/BS [2]: 0.11
- Lipid ratios: CH/PL [2]: 0.42
- Lipid ratios: PL/BS [2]: 0.27
- Cholesterol saturation index (CSI) [2]: 1.8
